{"source": "paper PMC6465301", "about": "“Enzyme-responsive progelator cyclic peptides for minimally invasive delivery to the heart post-myocardial infarction” (Nature Communications, 2019)", "key": {"[1]": {"target": "T1, thermolysin (Bacillus thermoproteolyticus, UniProt P00800)", "T1 construct": "purchased Promega V4001", "T1 sequence (P00800 233-548)": "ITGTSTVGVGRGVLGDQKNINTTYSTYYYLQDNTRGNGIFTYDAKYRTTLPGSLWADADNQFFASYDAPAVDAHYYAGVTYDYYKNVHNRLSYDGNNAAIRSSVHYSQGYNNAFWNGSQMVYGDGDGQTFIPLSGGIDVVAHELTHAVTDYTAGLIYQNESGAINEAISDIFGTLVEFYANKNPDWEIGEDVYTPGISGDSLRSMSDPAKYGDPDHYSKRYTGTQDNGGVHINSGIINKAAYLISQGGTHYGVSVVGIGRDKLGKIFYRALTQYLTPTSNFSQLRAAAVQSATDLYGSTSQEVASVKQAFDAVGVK", "test": "Time course rheology of thermolysin-induced bulk gelation and gel stability", "type": "in vitro ADME", "conditions": "10 mM in 1× DPBS pH 7.4, thermolysin 1:4500, 37 °C, continuous rheological measurement", "experimental": "All peptide samples were prepared at 10 mM peptide, except for those used to assess the effect of SAP functionalization with respect to weight (15 mg mL^−1). Viscous and viscoelastic properties were assessed using a stress-controlled rheometer (TA Instruments AR-G2) equipped with a Peltier plate to control temperature and a 20 mm diameter parallel plate geometry. Unless otherwise stated all measurements were taken at an angular frequency of 2.5 rad s^−1, strain of 0.5%, and temperature of 37 °C. Measurements were performed with a gap height of 1000 µm and repeated three times (except for step-strain and time course measurements) to ensure reproducibility. To prevent water evaporation, mineral oil was wrapped around the edge of the geometry at the air–sample interface. For viscoelastic measurements the apparatus was used in oscillatory mode. […] The dynamic moduli of the hydrogels were measured as a function of frequency in the range 0.25–100 rad s^−1 at a strain of 0.5%. Continuous step-strain oscillations were used to monitor hydrogel healing through disruption (3 min, 100% strain) and recovery (15 min, 0.5% strain) cycles (n = 3). For viscosity measurements the apparatus was used in steady-state flow mode. The viscosity of the samples was measured as a function of shear rate in the range 0.1–10 s^−1 (5% tolerance). […]"}, "[2]": {"system": "red blood cells (RBCs)", "test": "Hemolysis assay of red blood cells", "type": "cell-based", "conditions": "positive control at 1%, defines 100% hemolysis; human RBCs, 1 h, 37 °C; mean of n = 4", "experimental": "RBCs were isolated by centrifugation of 40 mL citrated whole human blood at 500 × g for 5 min, followed by gentle washes with 150 mM NaCl (×1) and 1× DPBS (×3). Isolated RBCs were diluted 1:50 into 1× DPBS (pH 7.4) and lightly agitated to prevent settling. Briefly, 190 µL of dilute RBCs and 10 µL of peptide stock or additive (20× final concentration) were mixed and added to a 96-well plate (n = 4 repeats), covered, and incubated at 37 °C for 1 h. Plates were centrifuged at 500 × g to pellet intact RBCs using a centrifuge equipped with a microplate rotor. Supernatant (100 µL) was transferred to a new 96-well plate, taking care not to disturb the pellet. Absorbance of the supernatant was measured at 540 nm to detect released hemoglobin. To calculate % hemolysis, absorbances were corrected for background absorbance from untreated vehicle and then normalized to 1% Triton X-100-treated RBCs to represent 100% hemolysis. %Hemolysis was calculated according to the following equation:2 %Hemolysis=Absexperiemental-Absnegativecontrol/Abspositivecontrol-Absnegativecontrol×100, where Absexperiemental is the average well absorbance pertaining to RBCs pertaining to the additive sample being analyzed, Absnegative control is the average well absorbance for RBCs incubated with vehicle (1× DPBS), and Abspositive control is the average well absorbance for RBCs containing 1% Triton X-100. […]"}, "[3]": {"system": "platelet-poor plasma (PPP)", "procedure": "For all measurements, peptide stocks in 1× DPBS were prepared such that the final concentrations (v/v) in blood or plasma were 1:10, 1:100, 1:500,1:1000, 1:5000, 1:10,000, and 1:20,000 (peptide/fluid volume). Controls with collagen as a procoagulant initial platelet-adhesive surface (0.095 mg mL^−1 or 1:240 dilution) or with calcium chelated by sodium citrate utilized 1× DPBS as a vehicle to ensure consistent blood dilution in all experiments. Peptide stocks, whole human blood, isolated RBCs, and PPP were warmed to 37 °C immediately prior to use. Plate reader measurements were conducted on an EnSpire Multimode Plate Reader with 96-well tissue culture plates (TCP).\nPPP was isolated from citrated whole human blood through two rounds of centrifugation at 2000 × g for 10 min and collection of the upper two-third layer. Briefly, 100 µL of PPP, 50 µL of peptide stock or additive (4× final concentration), and 50 µL of CaCl2 (50 mM) were mixed and added to a 96-well plate and incubated at 37 °C for kinetics measurements. For each sample, n = 6 repeats were conducted. Coagulation profiles were obtained by measuring well absorbance at 405 nm at 30 s intervals for 60 min. Onset to clotting was detected as a sharp increase in sample turbidity."}}, "note": "Bridge positions count the residues as written; N and C are the ends. Peptide text beside a SMILES is read from it."}
{"molecule": "CC(C)C[C@@H]1NC(=O)CNC(=O)[C@H](CC(C)C)NC(=O)[C@@H]2CCCN2C(=O)[C@H](CC(C)C)NC(=O)[C@H](CC(=O)O)NC(=O)[C@H](CC(C)C)NC(=O)[C@H](CCCCN)NC(=O)[C@H](CC(C)C)NC(=O)[C@H](CC(=O)O)NC(=O)[C@H](CC(C)C)NC(=O)[C@H](CCCCN)NC(=O)[C@H](CC(C)C)NC(=O)[C@H](CC(=O)O)NC(=O)[C@H](CC(C)C)NC(=O)[C@H](CCCCN)NC(=O)[C@@H](N)CSSC[C@@H](C(N)=O)NC(=O)CNC(=O)[C@H](C)NC1=O", "note": "[KLDLCyclic] (H-CKLDLKLDLKLDLPLGLAGC-NH2; disulfide 1-20)", "values": [{"measurement": "Stability of viscoelastic properties of resulting gel in the presence of thermolysin", "setting": "[1]", "result": "no change for up to 3 days"}]}
{"molecule": "Triton X-100", "values": [{"measurement": "%Hemolysis", "setting": "[2]", "result": 100.00, "unit": "%"}]}
{"molecule": "collagen", "values": [{"measurement": "Pro-thrombotic profile in PPP", "setting": "[3]", "result": "lack of change in pro-thrombotic profiles"}]}
